Values after ≈ are worked out from the molar mass of the structure shown. Like-named read-outs stand apart in the source and are kept apart here.
How the values were obtained:
[1] = system: S. pneumoniae clinical isolate 8828
[2] = system: S. pneumoniae clinical isolate 8828; settings: clinical isolate 8828, 18 h
[3] = system: S. pneumoniae clinical isolate 8919; settings: clinical isolate 8919, 18 h
[4] = Cytotoxicity assay, crystal violet staining; type: cell-based, human; settings: human
Procedure: (§1) The cytotoxicity of zincophorin, methyl zincophorin, daptomycin (Chemos GmbH, Regenstauf, Germany), and imipenem (Sigma-Aldrich GmbH, Taufkirchen, Germany) was evaluated as described recently, [20]. Briefly, serial twofold compounds concentration were prepared in Eagle’s minimum essential medium supplemented with 2 mM L-glutamine or Dulbecco’s Modified Eagle Medium (Lonza Group Ltd., Basel, Switzerland) and added to three-day-old confluent human lung carcinoma cells (A549; Institute of Molecular Virology, University of Münster, Germany) and Madin-Darby canine kidney cell (MDCK; Friedrich-Loeffler Institute, Riems, Germany) monolayers grown in 96-well plates (Greiner bio-one GmbH, Frickenhausen, Germany), respectively. […] After dye elution and optical density measurement the 50% cytotoxic concentration (CC50) was calculated.

S. pneumoniae DSM14378 [5] = system: S. pneumoniae DSM14378
S. pneumoniae DSM20566 [6] = system: S. pneumoniae DSM20566
S. pneumoniae D39 [7] = system: S. pneumoniae D39
S. pneumoniae DSM20566 [8] = settings: DSM20566, 18 h
[9] = Cytotoxicity assay, crystal violet staining; type: cell-based, canine; settings: dog
Procedure: as §1

[10] = system: S. pneumoniae clinical isolate 6937; settings: clinical isolate 6937, 18 h
[11] = system: S. pneumoniae clinical isolate 9400
[12] = system: S. pneumoniae clinical isolate 8919
S. pneumoniae DSM14378 [13] = settings: DSM14378, 18 h
[14] = system: S. pneumoniae clinical isolate 9400; settings: clinical isolate 9400, 18 h
[15] = system: S. pneumoniae clinical isolate 6937
S. pneumoniae D39 [16] = settings: D39, 18 h
Streptococcus pneumoniae = test: Antimicrobial assays, all tested S. pneumoniae strains; settings: pneumococci; maximum tested concentration 50 µM; data not shown
[17] = system: human lung carcinoma cells (A549); test: Cytotoxicity assay, crystal violet staining; type: cell-based; settings: A549 cells
Procedure: as §1

S. pneumoniae DSM20566 [18] = test: microbe, parasite or virus in culture; settings: Streptococcus pneumoniae, DSM20566, 18 h, read-out: MIC (DSM20566)
[19] = system: S. pneumoniae clinical isolate 9400; test: microbe, parasite or virus in culture; settings: Streptococcus pneumoniae, 18 h, read-out: MIC (9400)
[20] = system: S. pneumoniae clinical isolate 6937; test: microbe, parasite or virus in culture; settings: Streptococcus pneumoniae, 18 h, read-out: MIC (6937)
[21] = system: S. pneumoniae clinical isolate 8828; test: microbe, parasite or virus in culture; settings: Streptococcus pneumoniae, 18 h, read-out: MIC (8828)
[22] = system: Madin-Darby canine kidney cell (MDCK); test: Cytotoxicity assay, crystal violet staining; type: cell-based; settings: MDCK cells
Procedure: as §1

[23] = system: Clostridium welchii (Clostridium perfringens); settings: cited from earlier work
[24] = system: S. pneumoniae clinical isolate 8919; test: microbe, parasite or virus in culture; settings: Streptococcus pneumoniae, 18 h, read-out: MIC (8919)
S. pneumoniae D39 [25] = test: microbe, parasite or virus in culture; settings: Streptococcus pneumoniae, D39, 18 h, read-out: MIC (D39)
S. pneumoniae DSM14378 [26] = test: microbe, parasite or virus in culture; settings: Streptococcus pneumoniae, DSM14378, 18 h, read-out: MIC (DSM14378)
[27] = A549 lung carcinoma cells (confluent monolayers), A549 cells, 72 h, maximum tested 100 µM, mean with standard deviation, read-out: 50% cytotoxic concentration (CC50), A549
[28] = MDCK cells (confluent monolayers), MDCK cells, 72 h, maximum tested 100 µM, mean with standard deviation, read-out: 50% cytotoxic concentration (CC50), MDCK
[29] = reference strain DSM14378, biofilm formation inhibited ≥90%, 24 h, TSB, mean with standard deviation
[30] = reference strain DSM20566, biofilm formation inhibited ≥90%, 24 h, TSB, mean with standard deviation
[31] = reference strain D39, biofilm formation inhibited ≥90%, 24 h, TSB, mean with standard deviation
[32] = clinical isolate 9400, biofilm formation inhibited ≥90%, 24 h, TSB, mean with standard deviation
[33] = clinical isolate 6937, biofilm formation inhibited ≥90%, 24 h, TSB, mean with standard deviation

Structure (SMILES) | CC50 at 72 h [4, 27] [µM] | CC50 at 72 h [9, 28] [µM] | MIC (S. pneumoniae DSM20566 [18]) [µM] | MBIC (DSM14378) (S. pneumoniae DSM14378 [5]; [29]) [µM] | MBIC (DSM20566) (S. pneumoniae DSM20566 [6]; [30]) [µM] | MIC [19] [µM] | MBIC (D39) (S. pneumoniae D39 [7]; [31]) [µM] | MIC [20] [µM] | MIC [21] [µM] | MBIC (9400) [11, 32] [µM] | MIC [24] [µM] | MIC (S. pneumoniae D39 [25]) [µM] | MBIC (6937) [15, 33] [µM] | MIC (S. pneumoniae DSM14378 [26]) [µM] | also measured
CCCCCCCCCC(=O)N[C@@H](Cc1c[nH]c2ccccc12)C(=O)N[C@H](CC(N)=O)C(=O)N[C@@H](CC(=O)O)C(=O)N[C@@H]1C(=O)NCC(=O)N[C@@H](CCCN)C(=O)N[C@@H](CC(=O)O)C(=O)N[C@H](C)C(=O)N[C@@H](CC(=O)O)C(=O)NCC(=O)N[C@H](CO)C(=O)N[C@@H]([C@H](C)CC(=O)O)C(=O)N[C@@H](CC(=O)c2ccccc2N)C(=O)O[C@@H]1C [daptomycin] | – | – | – | – | – | – | – | – | – | – | – | – | – | – | MBIC (8828) ([1]; clinical isolate 8828, 24 h): 0.48 ± 0.21 µM; MIC (8828) [2]: 0.86 ± 0.50 µM (≈ 1.39 µg/mL); MIC (8919) [3]: 0.31 ± 0.08 µM (≈ 0.502 µg/mL); CC50 at 72 h [4]: > 100 µM; MBIC (DSM14378) (S. pneumoniae DSM14378 [5]; DSM14378, 24 h): 1.99 ± 1.38 µM; MBIC (DSM20566) (S. pneumoniae DSM20566 [6]; DSM20566, 24 h): 1.92 ± 1.07 µM; MBIC (D39) (S. pneumoniae D39 [7]; D39, 24 h): 6.10 ± 0.79 µM; MIC (DSM20566) (S. pneumoniae DSM20566 [8]): 1.94 ± 0.91 µM (≈ 3.14 µg/mL); CC50 at 72 h [9]: > 100 µM; MIC (6937) [10]: 0.48 ± 0.18 µM (≈ 0.778 µg/mL); MBIC (9400) ([11]; clinical isolate 9400, 24 h): 2.28 ± 1.81 µM; MBIC (8919) ([12]; clinical isolate 8919, 24 h): 0.49 ± 0.26 µM; MIC (DSM14378) (S. pneumoniae DSM14378 [13]): 0.54 ± 0.18 µM (≈ 0.875 µg/mL); MIC (9400) [14]: 0.96 ± 0.56 µM (≈ 1.56 µg/mL); MBIC (6937) ([15]; clinical isolate 6937, 24 h): 1.66 ± 1.21 µM; MIC (D39) (S. pneumoniae D39 [16]): 2.80 ± 0.11 µM (≈ 4.54 µg/mL)
CCC[C@@H](C)/C=C(\C)[C@H](O)[C@H](C)/C=C/CC[C@@H](O)[C@H](C)[C@H](O)[C@H](C)[C@H](O)[C@H](C)[C@H]1O[C@H]([C@H](C)C(=O)OC)CC[C@@H]1C [zincophorin methyl ester] | > 100 | > 100 | – | – | – | – | – | – | – | – | – | – | – | – | antibacterial effect (highest concentration without effect) (Streptococcus pneumoniae): > 50 µM
CCCC(C)C=C(C)C(O)C(C)C=CCCC(O)C(C)C(O)C(C)C(O)C(C)C1OC(C(C)C(=O)O)CCC1C (stereo not drawn) [zincophorin] | 1.02 ± 0.63 | 0.63 ± 0.27 | 0.18 ± 0.02 (≈ 0.102 µg/mL) | 0.13 ± 0.06 | 0.17 ± 0.03 | 0.14 ± 0.07 (≈ 0.0796 µg/mL) | 0.40 ± 0.24 | 0.18 (≈ 0.102 µg/mL) | 0.22 ± 0.04 (≈ 0.125 µg/mL) | 0.36 ± 0.01 | 0.09 ± 0.01 (≈ 0.0512 µg/mL) | 0.21 ± 0.11 (≈ 0.119 µg/mL) | 0.46 ± 0.25 | 0.1 ± 0.05 (≈ 0.0569 µg/mL) | MBIC (8828) ([1]; clinical isolate 8828, biofilm formation inhibited ≥90%, 24 h, TSB, mean with standard deviation): 0.28 ± 0.06 µM; cytotoxic effects in words, A549 [17]: strong cytotoxic effects; cytotoxic effects in words, MDCK [22]: strong cytotoxic effects; activity against Clostridium welchii [23]: particularly active; MBIC (8919) ([12]; clinical isolate 8919, biofilm formation inhibited ≥90%, 24 h, TSB, mean with standard deviation): 0.15 ± 0.01 µM
C[C@@H](O)[C@H]1C(=O)N2C(C(=O)O)=C(SCCN=CN)C[C@H]12 [imipenem] | > 100 | – | 0.03 ± 0.01 (≈ 0.00898 µg/mL) | 0.19 ± 0.01 | 0.06 ± 0.03 | 0.01 ± 0.01 (≈ 0.00299 µg/mL) | 0.07 ± 0.03 | 0.01 (≈ 0.00299 µg/mL) | 0.02 (≈ 0.00599 µg/mL) | 0.36 ± 0.02 | 0.49 ± 0.17 (≈ 0.147 µg/mL) | 0.02 (≈ 0.00599 µg/mL) | 0.22 ± 0.14 | 0.02 ± 0.01 (≈ 0.00599 µg/mL) | –
